ChEMBL document CHEMBL1201862, “PubChem BioAssay data set” (2004)
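Five compound concentrations were applied to cells in 96-well plates for 48 hours; endpoints were derived by simple linear interpolation of the resulting dose-response curve. GI50 marks 50% less growth.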 The source made the active and inactive calls. Cut-off read from the data, not from the text of the source: active = GI50 up to about 1.1 µM and inactive = higher.

Tests used:
Assay in all cases: DTP human tumour cell line panel, 48 h
NCI-H226 = tested on: NCI-H226
MDA-N = tested on: MDA-N
U-251 = tested on: U-251
SK-MEL-28 = tested on: SK-MEL-28
Malme-3M = tested on: Malme-3M
HT-29 = tested on: HT-29
DU-145 = tested on: DU-145
PC-3 = tested on: PC-3
MDA-MB-435 = tested on: MDA-MB-435
HL-60 = tested on: HL-60
NCI/ADR-RES = tested on: NCI/ADR-RES
KM12 = tested on: KM12
Hs-578T = tested on: Hs-578T
SNB-75 = tested on: SNB-75
RPMI-8226 = tested on: RPMI-8226
A498 = tested on: A498
SK-OV-3 = tested on: SK-OV-3
SF-539 = tested on: SF-539
SK-MEL-2 = tested on: SK-MEL-2
HCC 2998 = tested on: HCC 2998

SMILES	GI50 (NCI-H226)	GI50 (MDA-N)	GI50 (U-251)	GI50 (SK-MEL-28)	GI50 (Malme-3M)	GI50 (HT-29)	GI50 (DU-145)	GI50 (PC-3)	GI50 (MDA-MB-435)	GI50 (HL-60)	GI50 (NCI/ADR-RES)	GI50 (KM12)	GI50 (Hs-578T)	GI50 (SNB-75)	GI50 (RPMI-8226)	GI50 (A498)	GI50 (SK-OV-3)	GI50 (SF-539)	GI50 (SK-MEL-2)	GI50 (HCC 2998)
COc1cc(Cl)c(CC(=O)c2c[nH]c3ccccc23)cc1OC	12.6 µM (inactive)	> 100 µM (inactive)	8.38 µM (inactive)	> 100 µM (inactive)	> 100 µM (inactive)	> 100 µM (inactive)	> 100 µM (inactive)	> 100 µM (inactive)	> 100 µM (inactive)	> 37.2 µM (inactive)	> 81.7 µM (inactive)	> 100 µM (inactive)	23.6 µM (inactive)	8.93 µM (inactive)	> 100 µM (inactive)	12.1 µM (inactive)	8.07 µM (inactive)	6.22 µM (inactive)	16.7 µM (inactive)	–
O=[N+]([O-])c1ccc(CSCc2ccc(Cl)cc2)cc1	> 100 µM (inactive)	> 100 µM (inactive)	> 100 µM (inactive)	> 100 µM (inactive)	> 100 µM (inactive)	78.3 µM (inactive)	> 100 µM (inactive)	> 100 µM (inactive)	> 100 µM (inactive)	33.1 µM (inactive)	> 100 µM (inactive)	> 100 µM (inactive)	> 100 µM (inactive)	> 100 µM (inactive)	55.7 µM (inactive)	> 100 µM (inactive)	> 100 µM (inactive)	> 100 µM (inactive)	> 100 µM (inactive)	–
O=C(O)CSCC(=O)O	> 100 µM (inactive)	> 100 µM (inactive)	> 100 µM (inactive)	> 100 µM (inactive)	> 100 µM (inactive)	> 100 µM (inactive)	> 100 µM (inactive)	> 100 µM (inactive)	> 100 µM (inactive)	> 100 µM (inactive)	> 100 µM (inactive)	> 100 µM (inactive)	> 100 µM (inactive)	> 100 µM (inactive)	–	> 100 µM (inactive)	–	–	> 100 µM (inactive)	–
CCOC(=O)C#Cc1ccc(C#CC(=O)OCC)cc1	3.3 µM (inactive)	1.2 µM (inactive)	2.51 µM (inactive)	2.84 µM (inactive)	3.35 µM (inactive)	1.99 µM (inactive)	–	6.85 µM (inactive)	0.818 µM (active)	2.74 µM (inactive)	6.43 µM (inactive)	2.76 µM (inactive)	3.15 µM (inactive)	0.0381 µM (active)	2.56 µM (inactive)	14.2 µM (inactive)	9.84 µM (inactive)	10.6 µM (inactive)	0.421 µM (active)	6.46 µM (inactive)
CN(c1ccccc1Cl)S(=O)(=O)c1ccccc1	> 100 µM (inactive)	> 100 µM (inactive)	> 100 µM (inactive)	> 100 µM (inactive)	> 100 µM (inactive)	> 100 µM (inactive)	> 100 µM (inactive)	44.3 µM (inactive)	76.6 µM (inactive)	14.6 µM (inactive)	> 100 µM (inactive)	> 100 µM (inactive)	68.5 µM (inactive)	> 100 µM (inactive)	> 100 µM (inactive)	–	93.1 µM (inactive)	> 100 µM (inactive)	> 100 µM (inactive)	–
CC(=O)Nc1ccc2c(C(=O)O)c(C)c(O)nc2n1	33.7 µM (inactive)	> 100 µM (inactive)	46.9 µM (inactive)	–	95.7 µM (inactive)	> 100 µM (inactive)	> 100 µM (inactive)	> 100 µM (inactive)	> 100 µM (inactive)	> 100 µM (inactive)	> 100 µM (inactive)	> 100 µM (inactive)	> 100 µM (inactive)	–	> 100 µM (inactive)	–	> 100 µM (inactive)	> 100 µM (inactive)	> 100 µM (inactive)	–
O=[As](O)(O)c1ccc(/N=N/c2ccc(O)cc2)cc1	> 100 µM (inactive)	> 100 µM (inactive)	> 100 µM (inactive)	> 100 µM (inactive)	> 100 µM (inactive)	> 100 µM (inactive)	> 100 µM (inactive)	> 100 µM (inactive)	> 100 µM (inactive)	> 100 µM (inactive)	> 100 µM (inactive)	> 100 µM (inactive)	> 100 µM (inactive)	> 100 µM (inactive)	> 100 µM (inactive)	> 100 µM (inactive)	> 100 µM (inactive)	–	> 100 µM (inactive)	–
CN(CC(=O)O)c1ncc2c(n1)CCCC2	> 100 µM (inactive)	> 100 µM (inactive)	> 100 µM (inactive)	> 100 µM (inactive)	> 100 µM (inactive)	> 100 µM (inactive)	> 100 µM (inactive)	> 100 µM (inactive)	> 100 µM (inactive)	> 100 µM (inactive)	> 100 µM (inactive)	> 100 µM (inactive)	> 100 µM (inactive)	> 100 µM (inactive)	> 100 µM (inactive)	> 100 µM (inactive)	> 100 µM (inactive)	> 100 µM (inactive)	> 100 µM (inactive)	–
c1ccc(COC2NCCN2Cc2ccccc2)cc1 (stereo unspecified)	> 100 µM (inactive)	> 100 µM (inactive)	> 100 µM (inactive)	> 100 µM (inactive)	> 100 µM (inactive)	> 100 µM (inactive)	> 100 µM (inactive)	> 100 µM (inactive)	> 100 µM (inactive)	69 µM (inactive)	84.5 µM (inactive)	> 100 µM (inactive)	5.64 µM (inactive)	97.7 µM (inactive)	> 100 µM (inactive)	41.7 µM (inactive)	> 100 µM (inactive)	> 100 µM (inactive)	> 100 µM (inactive)	–
C=CC(C)(C)C1(CC(OC)OC)C(=O)N(C)c2ccccc21 (stereo unspecified)	> 25 µM (inactive)	> 25 µM (inactive)	> 25 µM (inactive)	> 25 µM (inactive)	–	> 25 µM (inactive)	> 25 µM (inactive)	> 25 µM (inactive)	> 25 µM (inactive)	> 25 µM (inactive)	> 25 µM (inactive)	> 25 µM (inactive)	> 25 µM (inactive)	> 25 µM (inactive)	> 25 µM (inactive)	> 25 µM (inactive)	> 25 µM (inactive)	–	> 25 µM (inactive)	> 25 µM (inactive)
O=Cc1c2c(cc3c1CC1(C3)Cc3cc4c(c(C=O)c3C1)CCC4)CCC2	29.1 µM (inactive)	48.2 µM (inactive)	16.3 µM (inactive)	–	27.5 µM (inactive)	31.3 µM (inactive)	–	30.3 µM (inactive)	45.6 µM (inactive)	27.5 µM (inactive)	68.2 µM (inactive)	–	23.1 µM (inactive)	–	43.6 µM (inactive)	30.7 µM (inactive)	36.1 µM (inactive)	37.5 µM (inactive)	21.3 µM (inactive)	36.6 µM (inactive)
CN1C(=O)[C@H](c2c[nH]c3ccccc23)[C@H](c2c[nH]c3ccccc23)C1=O	27.2 µM (inactive)	38.1 µM (inactive)	35.4 µM (inactive)	33.7 µM (inactive)	36.5 µM (inactive)	34.7 µM (inactive)	48.3 µM (inactive)	24.3 µM (inactive)	26.4 µM (inactive)	5.13 µM (inactive)	27 µM (inactive)	36.1 µM (inactive)	31.3 µM (inactive)	34.7 µM (inactive)	24.9 µM (inactive)	–	38.2 µM (inactive)	21.7 µM (inactive)	22.3 µM (inactive)	> 52.5 µM (inactive)
CC[C@@H](/C=C\CCC(=O)C[C@H](O)CCC=C(C)C)O[Si](C(C)C)(C(C)C)C(C)C	> 100 µM (inactive)	88.9 µM (inactive)	> 100 µM (inactive)	> 100 µM (inactive)	–	52.6 µM (inactive)	> 100 µM (inactive)	75.5 µM (inactive)	> 100 µM (inactive)	46 µM (inactive)	> 100 µM (inactive)	> 100 µM (inactive)	> 100 µM (inactive)	> 100 µM (inactive)	57.3 µM (inactive)	> 100 µM (inactive)	> 100 µM (inactive)	> 100 µM (inactive)	42.9 µM (inactive)	> 100 µM (inactive)
C=C(C)[C@]12CC(C)C34OC(/C=C\C=C\CCCCCCCCC)(O[C@@H]1[C@@H]3[C@@H]1O[C@]1(CO)[C@@H](O)[C@]1(O)C(=O)C(C)=C[C@@H]41)O2 (stereo partly specified)	18 µM (inactive)	0.01 µM (active)	15.5 µM (inactive)	12.1 µM (inactive)	0.535 µM (active)	2.21 µM (inactive)	8.38 µM (inactive)	2 µM (inactive)	0.0223 µM (active)	0.0103 µM (active)	18.5 µM (inactive)	6.97 µM (inactive)	0.01 µM (active)	5.07 µM (inactive)	11.9 µM (inactive)	–	20.3 µM (inactive)	0.01 µM (active)	–	0.01 µM (active)
O=C(c1ccco1)N1CCCN(C(=O)c2ccco2)C1=S	36.4 µM (inactive)	> 100 µM (inactive)	> 100 µM (inactive)	> 100 µM (inactive)	33 µM (inactive)	> 100 µM (inactive)	> 100 µM (inactive)	24.4 µM (inactive)	> 100 µM (inactive)	> 100 µM (inactive)	> 100 µM (inactive)	82 µM (inactive)	> 100 µM (inactive)	–	> 100 µM (inactive)	> 100 µM (inactive)	> 100 µM (inactive)	29.4 µM (inactive)	46.5 µM (inactive)	–
